In brackets after ≈: the same amount, converted by molar mass.
How the values were obtained:
Type in all cases: cell-based
M. suipneumoniae JF 435 = assay: Anti-mycoplasmal in vitro MIC; conditions: Mesomycoplasma hyopneumoniae, JF435, 144 h, Friis broth solidified with 0.9% agarose, 6 days incubation at 37°C
M. hyorhinis ATCC 25021 = assay: Anti-mycoplasmal in vitro MIC; conditions: Mesomycoplasma hyorhinis, ATCC25021, 144 h, Friis broth solidified with 0.9% agarose, 6 days incubation at 37°C
Bacillus subtilis 6633 = assay: Human bacteria MIC; conditions: nutrient agar with 5% chocolated horse blood, 18 hours at 37°C
Experimental: (§1) The values were determined by serial dilutions in nutrient agar with 5% chocolated horse blood after incubations for 18 hours at 37 °C.

[1] = test system: Corynebacterium xerosis 9755; assay: Human bacteria MIC; conditions: nutrient agar with 5% chocolated horse blood, 18 hours at 37°C
Experimental: as §1

P. mirabilis 889 = assay: Human bacteria MIC; conditions: Proteus mirabilis, nutrient agar with 5% chocolated horse blood, 18 hours at 37°C
Experimental: as §1

[2] = test system: M. suipneumoniae NCTC 10110; assay: Anti-mycoplasmal in vitro MIC; conditions: Mesomycoplasma hyopneumoniae, NCTC10110, 144 h, Friis broth solidified with 0.9% agarose, 6 days incubation at 37°C
M. suipneumoniae LABER = assay: Anti-mycoplasmal in vitro MIC; conditions: Mesomycoplasma hyopneumoniae, 144 h, Friis broth solidified with 0.9% agarose, 6 days incubation at 37°C
M. pneumoniae ATCC 15492 = assay: Anti-mycoplasmal in vitro MIC; conditions: Mycoplasmoides pneumoniae, ATCC15492, 144 h, Friis broth solidified with 0.9% agarose, 6 days incubation at 37°C
M. suipneumoniae HK(2) = assay: Anti-mycoplasmal in vitro MIC; conditions: Mesomycoplasma hyopneumoniae, 144 h, Friis broth solidified with 0.9% agarose, 6 days incubation at 37°C
M. dispar NCTC 10125 = assay: Anti-mycoplasmal in vitro MIC; conditions: 144 h, Friis broth solidified with 0.9% agarose, 6 days incubation at 37°C
M. suipneumoniae MS 16 = assay: Anti-mycoplasmal in vitro MIC; conditions: Mesomycoplasma hyopneumoniae, MS16, 144 h, Friis broth solidified with 0.9% agarose, 6 days incubation at 37°C
M. suipneumoniae UCD 1 = assay: Anti-mycoplasmal in vitro MIC; conditions: Mesomycoplasma hyopneumoniae, UCD1, 144 h, Friis broth solidified with 0.9% agarose, 6 days incubation at 37°C
[3] = test system: M. hyosynoviae ATCC 25591; assay: Anti-mycoplasmal in vitro MIC; conditions: 144 h, Friis broth solidified with 0.9% agarose, 6 days incubation at 37°C
Strep. uberis SPU1 = assay: Veterinary bacteria MIC; conditions: Streptococcus uberis, Diagnostic Sensitivity Test Agar, 18 hours at 37°C
Experimental: (§2) The values were determined using a two fold serial dilutions.in Diagnostic Sensitivity Test Agar with an inoculum of 10^4 organisms and incubation for 18 hours at 37°C.

Strep. agalactiae SPA1 = assay: Veterinary bacteria MIC; conditions: Streptococcus agalactiae, Diagnostic Sensitivity Test Agar, 18 hours at 37°C
Experimental: as §2

Strep. dysgalactiae SPD1 = assay: Veterinary bacteria MIC; conditions: Streptococcus dysgalactiae, Diagnostic Sensitivity Test Agar, 18 hours at 37°C
Experimental: as §2

Past. multocida PA2 = assay: Veterinary bacteria MIC; conditions: Pasteurella multocida, Diagnostic Sensitivity Test Agar, 18 hours at 37°C
Experimental: as §2

Past. haemolytica PA5 = assay: Veterinary bacteria MIC; conditions: Mannheimia haemolytica, Diagnostic Sensitivity Test Agar, 18 hours at 37°C
Experimental: as §2

Staph. aureus 152 = assay: Veterinary bacteria MIC; conditions: Staphylococcus aureus, Diagnostic Sensitivity Test Agar, 18 hours at 37°C
Experimental: as §2

[4] = test system: Corynebacterium pyogenes CY1; assay: Veterinary bacteria MIC; conditions: Trueperella pyogenes, Diagnostic Sensitivity Test Agar, 18 hours at 37°C
Experimental: as §2

Staph. aureus B4 = assay: Veterinary bacteria MIC; conditions: Staphylococcus aureus, Diagnostic Sensitivity Test Agar, 18 hours at 37°C
Experimental: as §2

[5] = test system: Strep. suis (group D) SPS11; assay: Veterinary bacteria MIC; conditions: Streptococcus suis, Diagnostic Sensitivity Test Agar, 18 hours at 37°C
Experimental: as §2

[6] = test system: Erysipelothrix rhusiopathiae NCTC 8163; assay: Veterinary bacteria MIC; conditions: NCTC8163, Diagnostic Sensitivity Test Agar, 18 hours at 37°C
Experimental: as §2

S. typhimurium S18 = assay: Veterinary bacteria MIC; conditions: Salmonella enterica, Diagnostic Sensitivity Test Agar, 18 hours at 37°C
Experimental: as §2

Past. multocida PA1 = assay: Veterinary bacteria MIC; conditions: Pasteurella multocida, Diagnostic Sensitivity Test Agar, 18 hours at 37°C
Experimental: as §2

Bord. bronchiseptica BO9 = assay: Veterinary bacteria MIC; conditions: Bordetella bronchiseptica, Diagnostic Sensitivity Test Agar, 18 hours at 37°C
Experimental: as §2

S. dublin S7 = assay: Veterinary bacteria MIC; conditions: Salmonella enterica, Diagnostic Sensitivity Test Agar, 18 hours at 37°C
Experimental: as §2

Staph. aureus Oxford = assay: Veterinary bacteria MIC; conditions: Staphylococcus aureus, Diagnostic Sensitivity Test Agar, 18 hours at 37°C
Experimental: as §2

E. Coli NCTC 10418 = assay: Veterinary bacteria MIC; conditions: Escherichia coli, NCTC10418, Diagnostic Sensitivity Test Agar, 18 hours at 37°C
Experimental: as §2

E. Coli E1 = assay: Veterinary bacteria MIC; conditions: Escherichia coli, Diagnostic Sensitivity Test Agar, 18 hours at 37°C
Experimental: as §2

Bord. bronchiseptica BO8 = assay: Veterinary bacteria MIC; conditions: Bordetella bronchiseptica, Diagnostic Sensitivity Test Agar, 18 hours at 37°C
Experimental: as §2

M. suipneumoniae Str. 11 = assay: Anti-mycoplasmal in vitro MIC; conditions: Mesomycoplasma hyopneumoniae, 144 h, Friis broth solidified with 0.9% agarose, 6 days incubation at 37°C
M. suipneumoniae NB12 = assay: Anti-mycoplasmal in vitro MIC; conditions: Mesomycoplasma hyopneumoniae, 144 h, Friis broth solidified with 0.9% agarose, 6 days incubation at 37°C
M. gallisepticum S6 = assay: Anti-mycoplasmal in vitro MIC; conditions: Mycoplasmoides gallisepticum, 144 h, Friis broth solidified with 0.9% agarose, 6 days incubation at 37°C
M. hyorhinis ATCC 23234 = assay: Anti-mycoplasmal in vitro MIC; conditions: Mesomycoplasma hyorhinis, ATCC23234, 144 h, Friis broth solidified with 0.9% agarose, 6 days incubation at 37°C
[7] = test system: M. bovigenitalium ATCC 14173; assay: Anti-mycoplasmal in vitro MIC; conditions: 144 h, Friis broth solidified with 0.9% agarose, 6 days incubation at 37°C

| SMILES | MIC (M. suipneumoniae JF 435) | MIC (M. hyorhinis ATCC 25021) | MIC (Bacillus subtilis 6633) | MIC [1] | MIC (P. mirabilis 889) | MIC [2] | MIC (M. suipneumoniae LABER) | MIC (M. pneumoniae ATCC 15492) | MIC (M. suipneumoniae HK(2)) | MIC (M. dispar NCTC 10125) | MIC (M. suipneumoniae MS 16) | MIC (M. suipneumoniae UCD 1) | MIC [3] | MIC (Strep. uberis SPU1) | MIC (Strep. agalactiae SPA1) | MIC (Strep. dysgalactiae SPD1) | MIC (Past. multocida PA2) | MIC (Past. haemolytica PA5) | MIC (Staph. aureus 152) | MIC [4] | further results |
| --- | --- | --- | --- | --- | --- | --- | --- | --- | --- | --- | --- | --- | --- | --- | --- | --- | --- | --- | --- | --- | --- |
| C/C(=C\C(=O)OC(C)c1ccc(C#N)cc1)CC1OCC(CC2OC2C(C)C(C)O)C(O)C1O (stereo not drawn) [Example 4, 1-(p-Cyanophenyl)ethyl monate A] | 1 µg/mL (≈ 2.11 µM) | 0.5 µg/mL (≈ 1.06 µM) | 1 µg/mL (≈ 2.11 µM) | > 100 µg/mL | > 100 µg/mL | 2.5 µg/mL (≈ 5.28 µM) | 1 µg/mL (≈ 2.11 µM) | 5 µg/mL (≈ 10.6 µM) | 2.5 µg/mL (≈ 5.28 µM) | 0.5 µg/mL (≈ 1.06 µM) | 1 µg/mL (≈ 2.11 µM) | 1 µg/mL (≈ 2.11 µM) | 0.1 µg/mL (≈ 0.211 µM) | 1.25 µg/mL (≈ 2.64 µM) | 10 µg/mL (≈ 21.1 µM) | 1.25 µg/mL (≈ 2.64 µM) | < 0.019 µg/mL | 40 µg/mL (≈ 84.5 µM) | 5 µg/mL (≈ 10.6 µM) | > 80 µg/mL | MIC (Staph. aureus B4): 10 µg/mL (≈ 21.1 µM); MIC [5]: 20 µg/mL (≈ 42.2 µM); MIC [6]: 40 µg/mL (≈ 84.5 µM); MIC (S. typhimurium S18): > 80 µg/mL; MIC (Past. multocida PA1): 10 µg/mL (≈ 21.1 µM); MIC (Bord. bronchiseptica BO9): 20 µg/mL (≈ 42.2 µM); MIC (S. dublin S7): > 80 µg/mL; MIC (Staph. aureus Oxford): 2.5 µg/mL (≈ 5.28 µM); MIC (E. Coli NCTC 10418): > 80 µg/mL; MIC (E. Coli E1): > 80 µg/mL; MIC (Bord. bronchiseptica BO8): 80 µg/mL (≈ 169 µM); MIC (M. suipneumoniae Str. 11): 1 µg/mL (≈ 2.11 µM); MIC (M. suipneumoniae NB12): 1 µg/mL (≈ 2.11 µM); MIC (M. gallisepticum S6): 10 µg/mL (≈ 21.1 µM); MIC (M. hyorhinis ATCC 23234): 0.5 µg/mL (≈ 1.06 µM); MIC [7]: 0.025 µg/mL (≈ 0.0528 µM) |
| C/C(=C\C(=O)OCc1cccc(C#N)c1)CC1OCC(C/C=C/C(C)C(C)O)C(O)C1O (stereo not drawn) [Example 5, m-Cyanobenzyl monate C] | 1 µg/mL (≈ 2.25 µM) | 0.5 µg/mL (≈ 1.13 µM) | 2.5 µg/mL (≈ 5.64 µM) | > 100 µg/mL | > 100 µg/mL | 1 µg/mL (≈ 2.25 µM) | 0.5 µg/mL (≈ 1.13 µM) | 5 µg/mL (≈ 11.3 µM) | 1 µg/mL (≈ 2.25 µM) | 0.1 µg/mL (≈ 0.225 µM) | 0.5 µg/mL (≈ 1.13 µM) | 1 µg/mL (≈ 2.25 µM) | 0.5 µg/mL (≈ 1.13 µM) | 0.156 µg/mL (≈ 0.352 µM) | 2.5 µg/mL (≈ 5.64 µM) | 0.156 µg/mL (≈ 0.352 µM) | 5 µg/mL (≈ 11.3 µM) | 40 µg/mL (≈ 90.2 µM) | 2.5 µg/mL (≈ 5.64 µM) | > 80 µg/mL | MIC (Staph. aureus B4): 2.5 µg/mL (≈ 5.64 µM); MIC [5]: > 80 µg/mL; MIC [6]: 80 µg/mL (≈ 180 µM); MIC (S. typhimurium S18): > 80 µg/mL; MIC (Past. multocida PA1): 10 µg/mL (≈ 22.5 µM); MIC (Bord. bronchiseptica BO9): 20 µg/mL (≈ 45.1 µM); MIC (S. dublin S7): > 80 µg/mL; MIC (Staph. aureus Oxford): 2.5 µg/mL (≈ 5.64 µM); MIC (E. Coli NCTC 10418): > 80 µg/mL; MIC (E. Coli E1): > 80 µg/mL; MIC (Bord. bronchiseptica BO8): > 80 µg/mL; MIC (M. suipneumoniae Str. 11): 0.5 µg/mL (≈ 1.13 µM); MIC (M. suipneumoniae NB12): 0.5 µg/mL (≈ 1.13 µM); MIC (M. gallisepticum S6): 10 µg/mL (≈ 22.5 µM); MIC (M. hyorhinis ATCC 23234): 0.5 µg/mL (≈ 1.13 µM); MIC [7]: 0.1 µg/mL (≈ 0.225 µM) |
| C/C(=C\C(=O)OCc1cc(C#N)cc(C#N)c1)CC1OCC(CC2OC2C(C)C(C)O)C(O)C1O (stereo not drawn) [Example 6, 3,5-Dicyanobenzyl monate A] | 0.1 µg/mL (≈ 0.206 µM) | 0.05 µg/mL (≈ 0.103 µM) | 2.5 µg/mL (≈ 5.16 µM) | > 100 µg/mL | 100 µg/mL (≈ 206 µM) | 0.1 µg/mL (≈ 0.206 µM) | 0.05 µg/mL (≈ 0.103 µM) | 2.5 µg/mL (≈ 5.16 µM) | 0.1 µg/mL (≈ 0.206 µM) | 0.05 µg/mL (≈ 0.103 µM) | 0.05 µg/mL (≈ 0.103 µM) | 0.1 µg/mL (≈ 0.206 µM) | 0.1 µg/mL (≈ 0.206 µM) | 0.312 µg/mL (≈ 0.644 µM) | 0.625 µg/mL (≈ 1.29 µM) | 0.625 µg/mL (≈ 1.29 µM) | 0.625 µg/mL (≈ 1.29 µM) | 10 µg/mL (≈ 20.6 µM) | 5 µg/mL (≈ 10.3 µM) | > 80 µg/mL | MIC (Staph. aureus B4): 5 µg/mL (≈ 10.3 µM); MIC [5]: 40 µg/mL (≈ 82.6 µM); MIC [6]: 80 µg/mL (≈ 165 µM); MIC (S. typhimurium S18): > 80 µg/mL; MIC (Past. multocida PA1): 5 µg/mL (≈ 10.3 µM); MIC (Bord. bronchiseptica BO9): 40 µg/mL (≈ 82.6 µM); MIC (S. dublin S7): > 80 µg/mL; MIC (Staph. aureus Oxford): 5 µg/mL (≈ 10.3 µM); MIC (E. Coli NCTC 10418): > 80 µg/mL; MIC (E. Coli E1): > 80 µg/mL; MIC (Bord. bronchiseptica BO8): 80 µg/mL (≈ 165 µM); MIC (M. suipneumoniae Str. 11): 0.05 µg/mL (≈ 0.103 µM); MIC (M. suipneumoniae NB12): 0.1 µg/mL (≈ 0.206 µM); MIC (M. gallisepticum S6): 2.5 µg/mL (≈ 5.16 µM); MIC (M. hyorhinis ATCC 23234): 0.05 µg/mL (≈ 0.103 µM); MIC [7]: 0.025 µg/mL (≈ 0.0516 µM) |

— patent EP0052437A1, “Antibacterial compounds, processes for their preparation and compositions containing them” (BEECHAM GROUP PLC, priority 1980, dated 1982)
